Values of other authors in patent publication US11224631B2, “Ready-to-use Carfilzomib compositions” (Orbicular Pharmaceutical Technologies Pvt. Ltd., priority 2017, dated 2022).

## CC(C)C[C@H](NC(=O)[C@H](CCc1ccccc1)NC(=O)CN1CCOCC1)C(=O)N[C@@H](Cc1ccccc1)C(=O)N[C@@H](CC(C)C)C(=O)[C@@]1(C)CO1 [Carfilzomib]
  Aqueous solubility: low aqueous solubility
